This passage reports Mortality and MIC results from patent US5698547A, “Cephalosporin antibiotics” (Microcide Pharmaceuticals, Inc., priority 1995, dated 1997).

As a reminder, the MIC is the lowest concentration found to suppress growth.

Each structure is given as a SMILES string. ≈ marks a conversion by molar mass, not a printed value. Structures can show the parent of a compound that is named as a salt. A value given as a limit tells only on which side of the number the result lay.

Assay [1] deals with methicillin-susceptible S. aureus strain ATCC 13709. Kind of assay: murine model for lethal bacteremic peritonitis. Format: in vivo, female Swiss-Webster mice. As to conditions: subcutaneous, 72 h. Here is the method:
Groups of 5 female Swiss-Webster mice (Simonsen, Gilroy, Calif.) each are challenged by the intraperitoneal (IP) route with tenfold increments of a bacterial inoculum. This permits calculation of the mean lethal dose (LD50) and the LD100. For preliminary evaluation of a new antibiotic, mice are challenged IP with an LD100 titer of bacteria. In two equal doses administered at the time of bacterial challenge and 2 hours later, groups of 10 mice each are treated subcutaneously with two-fold increments of the test drug and an antibiotic of known efficacy in mice and humans (i.e., positive control). Mice are observed for 72 h. Those alive at 72 h are considered long term survivors. The total drug dose in mg/kg that protects 50% of mice in a group from death is termed the mean protective dose (PD50). PD50 s are similarly determined for several pathogens. The quantitative endpoints for the new drug are then compared with those obtained with reference antibiotics.
Six ten-fold dilutions of inoculum suspended in 0.5 mL of sterilized 7% hog gastric mucin (Sigma) are injected IP in groups of 5 mice each. A control group of 5 mice receive mucin alone. Mice are observed for 72 h. Those alive at 72 h are considered long term survivors. The mean lethal dose (LD50) and 100% lethal dose (LD100) are determined by the probit test.
For antibiotic efficacy studies, mice are challenged IP with bacterial titers that will afford an LD100 for the test strain. In two equal doses administered at the time of bacterial challenge and 2 hours later, groups of 10 mice each are treated by the subcutaneous route (SC) with twofold increments of the test antibiotic; another group is treated similarly with a reference antibiotic of known efficacy in animals and man. Drug doses can range from 0.01 to 512 mg/kg. If the drug is poorly soluble, Tween 20 or propylene glycol will be employed to solubilize the drug. Animals are observed for 72 h. The 50% protective dose (PD50) is calculated in mg/kg by the probit method. The PD50 is the same as the 50% effective dose (ED50) and the 50% curative dose (CD50). Samples of blood from the hearts of all animals that die and from half the mice that survive are cultured on brain-heart infusion agar. Animals that received a protective dosage of the test drug will be alive at 72 h, although they may appear moderately ill to very ill during the observation period. […] Most of these mice will die within 6 to 48 h. Those alive at 72 h will be considered long term survivors.
(Compound numbers correspond to those in MIC tables; data
reported for challenge with methicillin-susceptible S. aureus

The subject of assay [2] is S. aureus Col (Meth^R) (lac^-). Kind of assay: MIC by agar dilution, S. aureus Col (Meth^R) (lac^-). As to conditions: Staphylococcus aureus; agar dilution; S. aureus Col (Meth^R) (lac^-); read-out: MIC. Type of assay: cell-based. In a few lines:
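Agar dilution per NCCLS (1991): two-fold dilutions from 128 μg/mL down to ≤0.25 μg/mL in Mueller-Hinton agar, each level in duplicate. Spots of about 10^4 cfu of log-phase culture; 16-20 h at 35°-36° C. MIC in μg/ml is the lowest concentration inhibiting growth.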
Background: In agar dilution the substance is mixed into plates at graded concentrations.

Assay [3] deals with S. aureus Col8A (Meth^S) (lac^-). The experiment in a line: MIC by agar dilution, S. aureus Col8A (Meth^S) (lac^-). Format: cell-based. As to conditions: Staphylococcus aureus; agar dilution; S. aureus Col8A (Meth^S) (lac^-); read-out: MIC. As to the method:
(§1) The compounds of the invention were evaluated against several β-lactamresistant bacteria strains by determining the minimum inhibitory concentration (MIC, μg/ml) of each compound with respect to each strain. The MIC, the lowest concentration of antibiotic which inhibits growth of the test organism, was determined by the agar dilution method.
(§2) To determine the MIC for bacterial isolates, the test compound was incorporated in a series of two-fold dilutions into liquified Mueller-Hinton agar. Upon solidification, a number of different bacterial strains were spot inoculated with a replicating device onto the agar surface. […] The procedures used in these studies have been standardized by the National Committee for Clinical Laboratory Standards (NCCLS), as per the NCCLS publication entitled METHODS FOR DILUTION ANTIMICROBIAL SUSCEPTIBILITY TESTS (1991), which is incorporated herein by reference.
(§3) Aliquots of antimicrobial agents were prepared in phosphate buffered saline (PBS) at pH 7.2. Tween 20 or DMSO was used as a solubilizing vehicle as needed. Standard methods of vortexing, sonicating and gentle heat were used to facilitate solubilizing the test agent. Typically, the concentration of the stock solution was 10× that of the highest drug concentration tested. A 1.28 mg/mL stock solution was used with a subsequent highest working concentration of 128 μg/mL. Serial two-fold dilutions were done through ≤0.25 μg/mL. Each drug level was tested in duplicate. Two-fold drug dilutions were done in sterile 50 mL tubes with a final drug volume of 5 mL. Upon the addition of 45 mL of molten agar, a 10-fold dilution resulted. Two, 25 mL. plates were then poured into 15×150 mm square Petri plates with grids and allowed to harden.
(§4) A control plate with a reference drug, either cefotaxime, vancomycin or imipenem, was used as the positive growth control. Stock concentrations of reference antibiotics were prepared and frozen at -80° C. Upon preparation, the control plates were sealed and stored in the refrigerator for up to 1 week prior to use; however, imipenem control plates had to be prepared just prior to use. All test plates were used within 24 hours of preparation.
(§5) Satisfactory results were obtained where the inoculum contained about 10^4 colony forming units (cfu) ±0.5 logs. Starting with pure cultures of the test isolates on agar plates, a few isolated colonies were transferred to a tube of nutrient broth and allowed to grow 4-6 hours at 35°-36° C. to reach log-phase growth. Dropwise addition of the broth culture to PBS was done to match a 0.5 McFarland turbidity standard equal to 10^8 cfu/mL. This was further diluted ten-fold in PBS to reach a working inoculum concentration of 10^7 cfu/mL. When 1 μL of the working inoculum was applied to the agar surface a concentration of about 10^4 cfu per spot was obtained.
(§6) Disposable sterile 1 μL loops were used to inoculate test plates, with each isolate in a designated grid on the agar plate. An alternate method of inoculation involved the use of a replica plater, a device with 48 steel pins allowing the simultaneous inoculation of multiple isolates. After the spots had dried, the plates were incubated at 35°-36° C. for 16-20 hours. Endpoints were assessed as the minimum inhibitory concentration (MIC) of antimicrobial agent.
The novel agents of this invention are notable for their enhanced activity against S. aureus Col and Enterococci (E. faecium and E. faecalis). The S. aureus Col strain is a high-level PBP2a producer, whereas S. aureus Col 8A, its isogenic partner, lacks PBP2a. […] Thus, the compounds of the present invention are effective against PBP2a-producing bacteria.

A further assay concerns S. aureus ATCC 29213. Kind of assay: MIC by agar dilution, S. aureus ATCC 29213. Format: cell-based. As to conditions: Staphylococcus aureus, ATCC29213; agar dilution; S. aureus ATCC 29213; read-out: MIC. Here is the method: as §1, §2, §3, §4, §5, §6

Consider `Nc1nc(/C(=N/OCC2CC2)C(=O)N[C@@H]2C(=O)N3C(C(=O)O)=C(Sc4ccnn4-c4ccccc4)CS[C@H]23)cs1` [Cmpd 108, (7R)-7-[(Z)-2-(2-aminothiazol-4-yl)-2-(cyclopropylmethyloxyimino)acetamido]-3-(1-N-phenylpyrazol-5-ylthio)-3-cephem-4-carboxylic acid], for which the Mortality is listed as 9/10 in assay [1] (dose 0.625 mg/kg); 8/10 in assay [1] (dose 1.25 mg/kg); 9/10 in assay [1] (dose 2.5 mg/kg); 10/10 in assay [1] (dose 5 mg/kg); 10/10 in assay [1] (dose 10 mg/kg). For the same compound, the MIC in assay [2] was determined as 4 µg/mL (≈ 6.69 µM).
Regarding `O=C(CSc1ccncc1)N[C@@H]1C(=O)N2C(C(=O)O)=C(Sc3ccnn3-c3ccccc3)CS[C@H]12` [Cmpd 110, (7R)-7-[(4-pyridylthioacetyl)amino]-3-(1-N-phenylpyrazol-5-ylthio)-3-cephem-4-carboxylic acid], the Mortality is 8/10 in assay [1] (dose 0.625 mg/kg); 7/10 in assay [1] (dose 1.25 mg/kg); 8/10 in assay [1] (dose 2.5 mg/kg); 6/10 in assay [1] (dose 5 mg/kg); 0/10 in assay [1] (dose 10 mg/kg). In addition, the minimum inhibitory concentration (MIC) in assay [2] turned out to be 2 µg/mL (≈ 3.8 µM).
Regarding `O=C(COc1ccccc1)N[C@@H]1C(=O)N2C(C(=O)O)=C(Sc3ccnn3-c3ccccc3)CS[C@H]12` [Cmpd 112, (7R)-7-[(phenyloxyacetyl)amino]-3-(1-N-phenylpyrazol-5-ylthio)-3-cephem-4-carboxylic acid], the values for the MIC (in assay [3]; with S. aureus ATCC 29213; in assay [2]) were no more than 0.06 µg/mL, no more than 0.06 µg/mL and 4 µg/mL (≈ 7.87 µM), respectively.
As to `O=C(O)C1=C(Sc2ccnn2-c2ccccc2)CS[C@@H]2[C@H](NC(=O)C3SCCS3)C(=O)N12` [Cmpd 115, (7R)-7-[(2-dithiolanylcarbonyl)amino]-3-(1-N-phenylpyrazol-5-ylthio)-3-cephem-4-carboxylic acid], the Mortality is 8/10 in assay [1] (dose 0.625 mg/kg); 9/10 in assay [1] (dose 1.25 mg/kg); 7/10 in assay [1] (dose 2.5 mg/kg); 4/10 in assay [1] (dose 5 mg/kg); 0/10 in assay [1] (dose 10 mg/kg). Further, the MIC in assay [2] turned out to be 4 µg/mL (≈ 7.89 µM).
As for `Cc1nnc(SCC(=O)N[C@@H]2C(=O)N3C(C(=O)O)=C(Sc4ccnn4-c4ccccc4)CS[C@H]23)s1` [Cmpd 118], the Mortality is on record as 8/10 in assay [1] (dose 0.625 mg/kg); 6/10 in assay [1] (dose 1.25 mg/kg); 8/10 in assay [1] (dose 2.5 mg/kg); 4/10 in assay [1] (dose 5 mg/kg); 2/10 in assay [1] (dose 10 mg/kg). The minimum inhibitory concentration (MIC) in assay [2] turned out to be 4 µg/mL (≈ 7.32 µM).
Consider `O=C(CSc1ccccc1)N[C@@H]1C(=O)N2C(C(=O)O)=C(Sc3ccnn3-c3ccccc3)CS[C@H]12` [Cmpd 119, (7R)-7-[(phenylthioacetyl)amino]-3-(1-N-phenylpyrazol-5-ylthio)-3-cephem-4-carboxylic acid], for which the Mortality was 10/10 in assay [1] (dose 0.3125 mg/kg); 9/10 in assay [1] (dose 0.625 mg/kg); 10/10 in assay [1] (dose 1.25 mg/kg); 7/10 in assay [1] (dose 2.5 mg/kg); 8/10 in assay [1] (dose 5 mg/kg). Further, in assay [2], the MIC was found to be 2 µg/mL (≈ 3.81 µM).
Consider `N#CCSCC(=O)N[C@@H]1C(=O)N2C(C(=O)O)=C(Sc3ccnn3-c3ccccc3)CS[C@H]12` [Cmpd 122, (7R)-7-[(cyanomethylthioacetyl)amino]-3-(1-N-phenylpyrazol-5-ylthio)-3-cephem-4-carboxylic acid], for which the Mortality in assay [1] (dose 0.625 mg/kg) is 8/10; in assay [1] (dose 1.25 mg/kg), 6/10; in assay [1] (dose 2.5 mg/kg) it was 0/10; in assay [1] (dose 5 mg/kg), 0/10; in assay [1] (dose 10 mg/kg) it was 0/10. The MIC in assay [2] stood at 4 µg/mL (≈ 8.2 µM).
In the case of `CC(C)N=C(NC(C)C)SCC(=O)N[C@@H]1C(=O)N2C(C(=O)O)=C(Sc3ccccc3CSC(=N)N)CS[C@H]12` [Cmpd 125, (7R)-7-[((N,N'-diisopropylisothiouronium)acetyl)amino]-3-(2-isothiouroniummethylphenylthio)-3-cephem-4-carboxylate, trifluoroacetic acid salt], the Mortality in assay [1] (dose 0.625 mg/kg) is reported as 9/10; in assay [1] (dose 1.25 mg/kg) it was 10/10; in assay [1] (dose 2.5 mg/kg) it was 7/10; in assay [1] (dose 5 mg/kg), 4/9; in assay [1] (dose 10 mg/kg), 7/10. Also, in assay [2], the MIC was found to be 4 µg/mL.
For the compound `CSCC(=O)N[C@@H]1C(=O)N2C(C(=O)O)=C(Sc3ccccc3CSC(=N)N)CS[C@H]12` [Cmpd 127, (7R)-7-[(methylthioacetyl)amino]-3-(2-isothiouroniummethylphenylthio)-3-cephem-4-carboxylate, inner salt], the Mortality in assay [1] (dose 0.3125 mg/kg) is 6/10; in assay [1] (dose 0.625 mg/kg), 5/10; in assay [1] (dose 1.25 mg/kg), 4/10; in assay [1] (dose 2.5 mg/kg) it was 2/10; in assay [1] (dose 5 mg/kg), 1/10. Also, the MIC in assay [2] stood at 4 µg/mL.
For `O=C(O)C1=C(Sc2ccnn2-c2ccccc2)CS[C@@H]2[C@H](NC(=O)/C(=N\O)c3ccccc3)C(=O)N12` [Cmpd 130, (7R)-7-[(Z)-2-(Phenyl)-2-(hydroxyimino)acetamido]-3-(1-N-(phenyl)pyrazol-5-ylthio)-3-cephem-4-carboxylic acid], the Mortality is recorded as 10/10 in assay [1] (dose 0.625 mg/kg); 7/10 in assay [1] (dose 1.25 mg/kg); 9/10 in assay [1] (dose 2.5 mg/kg); 6/10 in assay [1] (dose 5 mg/kg); 6/10 in assay [1] (dose 10 mg/kg). Besides, in assay [2], the MIC was found to be 2 µg/mL (≈ 3.83 µM).
Consider `O=C(CS/C=C\Cl)N[C@@H]1C(=O)N2C(C(=O)O)=C(Sc3ccnn3-c3ccccc3)CS[C@H]12` [Cmpd 131, (7R)-7-[((Z-2-Chlorovinyl)thioacetyl)amino]-3-(1-N-phenylpyrazol-5-ylthio)-3-cephem-4-carboxylic acid], for which the Mortality in assay [1] (dose 0.625 mg/kg) is on record as 9/10; in assay [1] (dose 1.25 mg/kg), 7/10; in assay [1] (dose 2.5 mg/kg), 4/10; in assay [1] (dose 5 mg/kg), 0/10; in assay [1] (dose 10 mg/kg) it was 0/10. Besides, the MIC in the assay with S. aureus ATCC 29213 was less than 0.06 µg/mL; in assay [2], 1 µg/mL (≈ 1.96 µM).
